Source: patent US10501492B2, “Antibiotic compounds” (priority 2009, dated 2019)
Where two headings read alike, the source gives them in different places.

Tested on: M. tuberculosis Clinical isolate: S, H, R and E resistant
Format: cell-based, Mycobacterium tuberculosis
Conditions: 72 hours

SMILES | % reduction in RLU (0.5 μg/mL) | % reduction in RLU (5 μg/mL) | % reduction in RLU (10 μg/mL)
C=C(NC(=O)c1csc(C2=NC3c4csc(n4)C4NC(=O)c5csc(n5)C(C(C)(O)C(C)O)NC(=O)C5CSC(=N5)/C(=C\C)NC(=O)C(C(C)O)NC(=O)c5csc(n5)C3(CC2)NC(=O)C(C)NC(=O)C(=C)NC(=O)C(C)NC(=O)C(C(C)C)NC2C=Cc3c(C(C)O)cc(nc3C2O)C(=O)OC4C)n1)C(=O)NC(C)C(N)=O (stereo not drawn) [Compound of Formula I(b)] | 5.67% | 70.9% | 83.74%
C=C(NC(=O)C(=C)NC(=O)c1csc(C2=NC3c4csc(n4)C4NC(=O)c5csc(n5)C(C(C)(O)C(C)O)NC(=O)C5CSC(=N5)/C(=C\C)NC(=O)C(C(C)O)NC(=O)c5csc(n5)C3(CC2)NC(=O)C(C)NC(=O)C(=C)NC(=O)C(C)NC(=O)C(C(C)C)NC2C=Cc3c(C(C)O)cc(nc3C2O)C(=O)OC4C)n1)C(N)=O (stereo not drawn) [Compound of Formula I(a)] | 20.88% | 78.11% | 88.42%
